ChEMBL document CHEMBL1201862, “PubChem BioAssay data set” (2004)
Activity calls are given as the source filed them.

Legend:
[1] = target: T1, Neuropeptides B/W receptor type 1 (Homo sapiens, UniProt P48145); assay: Fluorescence-based dose response cell-based high throughput screening assay to identify antagonists of the G-protein coupled receptor 7 (GPR7). [Related pubchem assays: 1952 (Screening assay (GPR7 antagonists).), 1880 (Summary AID.)]; assay type: functional
T1 sequence (P48145 whole entry): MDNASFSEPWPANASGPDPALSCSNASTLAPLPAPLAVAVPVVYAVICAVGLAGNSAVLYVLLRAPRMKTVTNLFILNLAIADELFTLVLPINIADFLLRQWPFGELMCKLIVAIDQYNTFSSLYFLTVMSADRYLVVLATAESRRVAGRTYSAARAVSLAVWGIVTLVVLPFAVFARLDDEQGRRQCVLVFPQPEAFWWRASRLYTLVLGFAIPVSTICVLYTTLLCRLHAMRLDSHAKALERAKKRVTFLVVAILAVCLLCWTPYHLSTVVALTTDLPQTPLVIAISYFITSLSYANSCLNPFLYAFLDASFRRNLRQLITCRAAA

[2] = target: Melanin-concentrating hormone receptor 1 (Homo sapiens, UniProt Q99705); assay: Fluorescence-based counterscreen for antagonists of the G-protein coupled receptor 7 (GPR7): cell-based high throughput dose response assay to identify antagonists of the melanin-concentrating hormone receptor 1 (MCHR1).; assay type: functional
[3] = inhibitors of intracellular T. cruzi replication, confirmation, NIH3T3 host cells, beta-gal luminescence (AID 2044); assay type: functional, cell-based;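 note: intracellular parasites grown in NIH/3T3 mouse fibroblasts as host cells; luminescent beta-galactosidase reporter signal from transgenic T. cruzi replicating inside host cells; inhibitors lower the luminescence signal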
[4] = cytotoxicity toward NIH3T3 fibroblasts, dose response, counter-screen, cell-based, ATP luminescence, mouse fibroblasts (AID 2010); assay type: functional;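 note: cells exposed to compound for about 90 hours before reading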
[5] = A cytotoxicity screen of small molecule inhibitors of the PhoP region in Salmonella typhi identified in the primary screen. [Related pubchem assays: 1850, 1864, 1985 ]; assay type: functional
[6] = target: Peroxisome proliferator-activated receptor gamma/Nuclear receptor coactivator 1 (Homo sapiens, UniProt P37231); assay: (§1) TR-FRET dose response biochemical High Throughput Screening assay for agonists of the steroid receptor coactivator 1 (SRC-1) recruitment by the peroxisome proliferator-activated receptor gamma (PPAR gamma): non-selective agonists. [Related pubchem assays (depositor defined):AID1300, AID1808, AID504735, AID631]; assay type: protein assay
[7] = target: Peroxisome proliferator-activated receptor gamma/Nuclear receptor coactivator 3 (Homo sapiens, UniProt P37231); assay: as §1, with “3 (SRC-3)” for “1 (SRC-1)”, “assays: 1301 (Confirmation screen.), 1048 (Primary screen.)]” for “assays (depositor defined):AID1300, AID1808, AID504735, AID631]”; assay type: functional
[8] = target: Peroxisome proliferator-activated receptor gamma/Nuclear receptor coactivator 2 (Homo sapiens, UniProt P37231); assay: TR-FRET dose response biochemical High Throughput Screening assay for agonists of the steroid receptor coactivator 2 (SRC-2) recruitment by the peroxisome proliferator-activated receptor gamma (PPAR gamma): non-selective agonists. [Related pubchem assays: 1297, 1032 ]; assay type: functional
[9] = cytotoxicity in HEK-293T cells, dose response, cytotoxicity control for BCR NF-kB inhibitor project, luminescence, B-cell screen hits (AID 489021); assay type: functional, cell-based;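 note: HEK-293T cells carrying an NF-kB luciferase reporter; cells exposed to compound for about 14 hours before viability readout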
[10] = target: Glyceraldehyde-3-phosphate dehydrogenase (Homo sapiens, UniProt P04406)
[11] = target: T2, Alkaline phosphatase, tissue-nonspecific isozyme (Homo sapiens, UniProt P05186); assay: human TNAP enzyme inhibitors, SAR follow-up, biochemical, luminescent, dose response (AID 1056)
T2 sequence (P05186 whole entry): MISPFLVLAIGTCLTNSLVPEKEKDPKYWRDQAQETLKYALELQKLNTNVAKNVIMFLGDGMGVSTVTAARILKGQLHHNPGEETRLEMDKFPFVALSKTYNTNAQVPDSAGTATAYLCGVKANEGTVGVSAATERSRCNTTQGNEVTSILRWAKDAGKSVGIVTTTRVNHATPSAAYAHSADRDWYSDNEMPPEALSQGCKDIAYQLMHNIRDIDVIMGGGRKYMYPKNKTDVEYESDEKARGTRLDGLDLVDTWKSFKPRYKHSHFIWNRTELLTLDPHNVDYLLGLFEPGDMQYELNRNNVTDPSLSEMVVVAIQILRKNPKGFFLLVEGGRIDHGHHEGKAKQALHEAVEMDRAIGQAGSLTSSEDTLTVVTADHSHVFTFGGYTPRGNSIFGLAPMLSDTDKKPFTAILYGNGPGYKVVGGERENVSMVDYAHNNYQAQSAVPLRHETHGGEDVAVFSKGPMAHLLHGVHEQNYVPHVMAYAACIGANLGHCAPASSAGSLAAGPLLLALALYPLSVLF

Aminopeptidase N = target: T3, Aminopeptidase N (Plasmodium falciparum FcB1/Columbia, UniProt O96935); assay: P. falciparum M1AAP inhibitors, biochemical, fluorogenic H-Leu-NHMec substrate, 1536-well (AID 1445); set-up: species or system Plasmodium falciparum 3D7, 3D7
T3 sequence (O96935 whole entry): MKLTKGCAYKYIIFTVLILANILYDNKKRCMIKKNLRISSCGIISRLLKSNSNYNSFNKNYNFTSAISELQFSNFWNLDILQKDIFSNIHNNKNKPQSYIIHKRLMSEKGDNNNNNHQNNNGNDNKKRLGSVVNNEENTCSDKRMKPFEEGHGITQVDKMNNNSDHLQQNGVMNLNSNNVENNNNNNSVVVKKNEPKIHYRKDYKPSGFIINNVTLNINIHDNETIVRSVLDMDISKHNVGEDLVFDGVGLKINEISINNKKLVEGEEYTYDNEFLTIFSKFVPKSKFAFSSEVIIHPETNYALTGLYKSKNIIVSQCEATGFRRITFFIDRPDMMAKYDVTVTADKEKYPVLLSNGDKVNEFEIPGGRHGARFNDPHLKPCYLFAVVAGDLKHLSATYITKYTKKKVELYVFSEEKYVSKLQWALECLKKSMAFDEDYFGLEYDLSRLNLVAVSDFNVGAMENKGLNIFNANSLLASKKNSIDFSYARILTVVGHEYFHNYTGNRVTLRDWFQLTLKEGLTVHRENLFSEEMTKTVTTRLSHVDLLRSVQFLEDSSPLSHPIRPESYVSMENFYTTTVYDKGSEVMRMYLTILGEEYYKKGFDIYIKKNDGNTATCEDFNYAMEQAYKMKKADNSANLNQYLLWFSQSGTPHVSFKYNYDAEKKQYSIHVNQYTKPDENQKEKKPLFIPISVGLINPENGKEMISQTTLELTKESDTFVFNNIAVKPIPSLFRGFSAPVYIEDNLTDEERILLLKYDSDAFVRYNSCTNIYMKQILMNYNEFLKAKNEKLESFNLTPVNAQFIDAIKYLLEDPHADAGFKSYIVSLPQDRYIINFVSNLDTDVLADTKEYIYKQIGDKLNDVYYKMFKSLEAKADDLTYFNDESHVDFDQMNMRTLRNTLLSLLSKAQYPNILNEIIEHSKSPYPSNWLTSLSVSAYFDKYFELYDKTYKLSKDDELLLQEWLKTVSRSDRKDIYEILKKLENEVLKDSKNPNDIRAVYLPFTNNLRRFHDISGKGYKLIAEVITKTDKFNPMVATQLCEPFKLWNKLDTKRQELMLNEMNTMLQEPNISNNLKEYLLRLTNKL

[12] = target: DNA dC->dU-editing enzyme APOBEC-3A (Homo sapiens, UniProt P31941); assay: Dose Response confirmation of small molecule APOBEC3A DNA Deaminase Inhibitors via a fluorescence-based single-stranded DNA deaminase assay. [Related pubchem assays (depositor defined):AID493011, AID493024]; assay type: functional
[13] = target: DNA dC->dU-editing enzyme APOBEC-3G (Homo sapiens, UniProt Q9HC16); assay type: functional;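 note: Dose-response counterscreen measuring inhibition of APOBEC3G DNA deaminase activity, run while confirming APOBEC3A inhibitors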
[14] = HEp-2 cell cytotoxicity, dose response, cytotoxicity control for RSV inhibitor project, HTS (AID 2410); assay type: functional; conditions: human respiratory syncytial virus
[15] = target: T4, Heat shock factor protein 1 (Mus musculus, UniProt P38532); assay: HSF1 potentiators in luciferase reporter cells, confirmation, cell-based, NIH3T3, luminescence, dose retest (AID 435004); assay type: functional;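 note: stress induced by proteasome inhibitor MG132 added 30 min after compound; luciferase reporter driven by HSF1 response element in NIH3T3 cells; actives raise luminescence as potentiators of the MG132 stress response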
T4 sequence (P38532 whole entry): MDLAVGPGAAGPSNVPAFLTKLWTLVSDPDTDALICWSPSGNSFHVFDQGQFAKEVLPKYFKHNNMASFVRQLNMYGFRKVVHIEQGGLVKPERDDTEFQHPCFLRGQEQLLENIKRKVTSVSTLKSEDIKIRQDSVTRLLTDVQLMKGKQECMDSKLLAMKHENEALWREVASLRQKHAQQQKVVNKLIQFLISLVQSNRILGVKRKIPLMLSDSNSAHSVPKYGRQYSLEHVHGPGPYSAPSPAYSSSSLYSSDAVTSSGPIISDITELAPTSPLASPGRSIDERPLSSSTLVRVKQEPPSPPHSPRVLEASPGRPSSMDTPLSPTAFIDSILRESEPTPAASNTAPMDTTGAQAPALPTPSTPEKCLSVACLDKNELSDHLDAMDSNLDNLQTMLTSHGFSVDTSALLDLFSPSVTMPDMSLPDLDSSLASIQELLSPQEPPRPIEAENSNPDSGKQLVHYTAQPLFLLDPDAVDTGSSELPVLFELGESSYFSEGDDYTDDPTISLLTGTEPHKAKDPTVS

[16] = target: Luciferin 4-monooxygenase (Photinus pyralis, UniProt P08659); assay: Counter Screen for Luciferase-based Assay Positives. [Related pubchem assays: 620, 618, 411 ]
HT-1080 = assay: cytotoxicity in HT1080 fibrosarcoma cells, cell-based, fluorescence readout (AID 620); assay type: functional; conditions: Homo sapiens
[17] = target: T5, Microphthalmia-associated transcription factor (Homo sapiens, UniProt O75030); assay: TRPM1 promoter luciferase signal decrease, dose response, MITF inhibitor project, cell-based, SK-MEL-5, cherry-picked, set 3 (AID 493073); assay type: functional
T5 sequence (O75030 whole entry): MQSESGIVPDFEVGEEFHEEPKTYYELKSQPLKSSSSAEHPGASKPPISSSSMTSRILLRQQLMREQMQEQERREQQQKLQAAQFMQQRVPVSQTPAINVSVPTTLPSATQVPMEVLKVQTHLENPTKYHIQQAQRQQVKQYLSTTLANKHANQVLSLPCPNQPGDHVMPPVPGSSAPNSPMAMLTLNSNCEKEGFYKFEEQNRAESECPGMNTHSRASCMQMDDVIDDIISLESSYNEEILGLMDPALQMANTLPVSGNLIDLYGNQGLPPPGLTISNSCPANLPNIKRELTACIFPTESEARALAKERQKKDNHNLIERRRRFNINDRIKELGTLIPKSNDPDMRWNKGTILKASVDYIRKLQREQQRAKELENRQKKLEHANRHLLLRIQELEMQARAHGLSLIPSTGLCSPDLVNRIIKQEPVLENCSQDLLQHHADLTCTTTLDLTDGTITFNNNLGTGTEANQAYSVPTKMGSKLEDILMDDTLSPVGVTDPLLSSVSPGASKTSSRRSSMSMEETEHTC

cells [18] = assay type: functional, cell-based
cells [19] = assay type: functional, cell-based; remark: listed apart in the source
Nonstructural protein 1 = Nonstructural protein 1 (Influenza A virus, UniProt Q194T2); assay type: functional, Influenza A virus (A/California/07/2009(H1N1))
[20] = microbe, parasite or virus in culture; assay type: functional; conditions: Mycobacterium tuberculosis
[21] = Luminescence-based dose response cell-based high throughput screening assay for cytotoxic compounds using the IEC-6 intestinal epithelial cell line. [Related pubchem assays: 1858 (Summary AID.), 1825 (Counterscreen.), 1907 (Confirmation screen.)]; assay type: functional
Vero = assay: cells; assay type: functional; conditions: Chlorocebus sabaeus

Sequence of Glyceraldehyde-3-phosphate dehydrogenase (P04406 whole entry): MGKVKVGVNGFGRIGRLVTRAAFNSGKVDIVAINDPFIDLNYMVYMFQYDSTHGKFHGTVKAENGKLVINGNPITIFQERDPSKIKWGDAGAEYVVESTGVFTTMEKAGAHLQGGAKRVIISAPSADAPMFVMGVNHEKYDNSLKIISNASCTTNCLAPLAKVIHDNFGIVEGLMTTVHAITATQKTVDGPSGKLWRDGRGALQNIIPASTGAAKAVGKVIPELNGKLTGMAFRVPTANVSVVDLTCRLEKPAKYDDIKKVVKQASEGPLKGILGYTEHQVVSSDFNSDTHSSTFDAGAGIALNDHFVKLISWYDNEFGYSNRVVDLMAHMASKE
Sequence of DNA dC->dU-editing enzyme APOBEC-3G (Q9HC16 whole entry): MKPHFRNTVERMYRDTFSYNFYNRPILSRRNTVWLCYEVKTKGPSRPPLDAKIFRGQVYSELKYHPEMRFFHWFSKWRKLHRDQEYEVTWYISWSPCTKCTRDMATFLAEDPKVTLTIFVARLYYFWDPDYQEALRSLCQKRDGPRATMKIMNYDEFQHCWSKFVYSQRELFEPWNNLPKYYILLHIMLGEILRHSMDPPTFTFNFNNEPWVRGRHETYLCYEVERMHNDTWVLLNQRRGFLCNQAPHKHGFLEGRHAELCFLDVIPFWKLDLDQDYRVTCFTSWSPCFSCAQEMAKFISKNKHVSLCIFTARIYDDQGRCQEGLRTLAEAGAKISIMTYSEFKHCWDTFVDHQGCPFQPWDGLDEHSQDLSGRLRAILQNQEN
Sequence of Melanin-concentrating hormone receptor 1 (Q99705 whole entry): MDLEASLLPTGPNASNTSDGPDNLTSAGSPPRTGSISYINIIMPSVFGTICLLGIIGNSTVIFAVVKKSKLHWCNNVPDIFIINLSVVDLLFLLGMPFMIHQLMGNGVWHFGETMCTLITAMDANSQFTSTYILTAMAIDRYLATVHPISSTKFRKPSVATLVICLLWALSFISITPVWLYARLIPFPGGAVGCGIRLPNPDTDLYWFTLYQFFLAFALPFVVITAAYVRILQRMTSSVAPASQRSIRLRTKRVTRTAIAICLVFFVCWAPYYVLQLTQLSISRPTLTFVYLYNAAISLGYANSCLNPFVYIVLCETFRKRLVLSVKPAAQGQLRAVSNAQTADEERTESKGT
Sequence of DNA dC->dU-editing enzyme APOBEC-3A (P31941 whole entry): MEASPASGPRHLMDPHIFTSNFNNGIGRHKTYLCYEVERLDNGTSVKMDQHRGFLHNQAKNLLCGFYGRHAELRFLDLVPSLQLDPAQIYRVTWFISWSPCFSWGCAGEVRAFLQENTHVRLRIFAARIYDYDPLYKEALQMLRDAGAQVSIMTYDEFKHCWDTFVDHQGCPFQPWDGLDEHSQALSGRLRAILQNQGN
Sequence of Peroxisome proliferator-activated receptor gamma/Nuclear receptor coactivator 2 (P37231 whole entry): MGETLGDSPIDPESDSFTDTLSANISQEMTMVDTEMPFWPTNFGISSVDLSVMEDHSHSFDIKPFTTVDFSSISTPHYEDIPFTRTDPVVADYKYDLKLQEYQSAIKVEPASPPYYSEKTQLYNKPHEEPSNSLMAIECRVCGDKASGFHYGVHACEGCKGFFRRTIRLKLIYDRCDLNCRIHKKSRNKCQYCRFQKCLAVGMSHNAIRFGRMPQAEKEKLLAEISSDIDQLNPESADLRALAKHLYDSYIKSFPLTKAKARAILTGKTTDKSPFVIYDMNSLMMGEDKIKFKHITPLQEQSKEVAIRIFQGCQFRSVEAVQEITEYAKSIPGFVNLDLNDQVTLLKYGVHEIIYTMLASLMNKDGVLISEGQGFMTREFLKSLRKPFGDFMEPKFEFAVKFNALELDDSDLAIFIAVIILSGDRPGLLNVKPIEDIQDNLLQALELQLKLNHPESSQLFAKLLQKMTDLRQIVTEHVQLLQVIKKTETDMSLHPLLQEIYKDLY
Sequence of Peroxisome proliferator-activated receptor gamma/Nuclear receptor coactivator 2 (Q15596 whole entry, further chain): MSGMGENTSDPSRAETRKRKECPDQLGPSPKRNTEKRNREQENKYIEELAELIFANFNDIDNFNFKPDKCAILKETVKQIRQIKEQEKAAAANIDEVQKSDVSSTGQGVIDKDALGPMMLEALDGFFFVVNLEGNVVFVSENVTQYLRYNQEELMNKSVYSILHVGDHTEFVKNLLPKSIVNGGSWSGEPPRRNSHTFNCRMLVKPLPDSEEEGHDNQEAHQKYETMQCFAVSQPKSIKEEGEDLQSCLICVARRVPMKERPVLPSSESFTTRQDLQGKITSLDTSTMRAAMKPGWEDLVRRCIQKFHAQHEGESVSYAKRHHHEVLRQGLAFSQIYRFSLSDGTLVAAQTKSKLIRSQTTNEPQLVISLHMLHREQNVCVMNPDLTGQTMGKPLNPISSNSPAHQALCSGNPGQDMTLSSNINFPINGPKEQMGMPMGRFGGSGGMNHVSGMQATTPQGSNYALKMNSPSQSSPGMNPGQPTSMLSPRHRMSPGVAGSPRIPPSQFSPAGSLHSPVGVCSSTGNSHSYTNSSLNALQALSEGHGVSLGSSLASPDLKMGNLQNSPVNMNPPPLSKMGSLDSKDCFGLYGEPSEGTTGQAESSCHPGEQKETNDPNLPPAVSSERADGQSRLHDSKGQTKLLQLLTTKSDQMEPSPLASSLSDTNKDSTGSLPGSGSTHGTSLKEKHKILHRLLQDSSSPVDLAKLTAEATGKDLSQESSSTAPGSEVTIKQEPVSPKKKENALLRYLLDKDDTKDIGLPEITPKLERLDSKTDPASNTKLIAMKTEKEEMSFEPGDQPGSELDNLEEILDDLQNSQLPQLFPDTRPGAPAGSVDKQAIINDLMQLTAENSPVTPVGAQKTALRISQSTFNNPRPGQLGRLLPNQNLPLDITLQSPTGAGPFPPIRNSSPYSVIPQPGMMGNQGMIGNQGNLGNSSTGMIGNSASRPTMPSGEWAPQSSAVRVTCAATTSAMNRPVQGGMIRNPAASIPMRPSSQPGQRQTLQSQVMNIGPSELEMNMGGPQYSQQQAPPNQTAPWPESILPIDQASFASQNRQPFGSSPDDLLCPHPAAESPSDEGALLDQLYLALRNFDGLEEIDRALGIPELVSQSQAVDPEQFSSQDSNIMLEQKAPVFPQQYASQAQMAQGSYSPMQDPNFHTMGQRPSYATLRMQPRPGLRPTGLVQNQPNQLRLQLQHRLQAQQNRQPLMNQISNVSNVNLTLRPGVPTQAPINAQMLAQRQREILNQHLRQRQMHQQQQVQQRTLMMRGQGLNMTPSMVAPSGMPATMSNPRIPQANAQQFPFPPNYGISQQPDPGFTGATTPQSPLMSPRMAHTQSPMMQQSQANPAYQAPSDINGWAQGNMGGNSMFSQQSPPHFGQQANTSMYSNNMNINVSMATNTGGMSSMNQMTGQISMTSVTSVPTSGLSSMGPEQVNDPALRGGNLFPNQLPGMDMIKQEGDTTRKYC
Sequence of Nonstructural protein 1 (Q194T2 whole entry): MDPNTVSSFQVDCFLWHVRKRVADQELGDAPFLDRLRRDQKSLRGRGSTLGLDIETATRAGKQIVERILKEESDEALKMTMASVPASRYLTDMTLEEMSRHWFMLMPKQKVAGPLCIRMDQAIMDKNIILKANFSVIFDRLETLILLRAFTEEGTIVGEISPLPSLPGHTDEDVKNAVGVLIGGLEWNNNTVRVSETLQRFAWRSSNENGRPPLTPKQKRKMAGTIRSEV
Sequence of Luciferin 4-monooxygenase (P08659 whole entry): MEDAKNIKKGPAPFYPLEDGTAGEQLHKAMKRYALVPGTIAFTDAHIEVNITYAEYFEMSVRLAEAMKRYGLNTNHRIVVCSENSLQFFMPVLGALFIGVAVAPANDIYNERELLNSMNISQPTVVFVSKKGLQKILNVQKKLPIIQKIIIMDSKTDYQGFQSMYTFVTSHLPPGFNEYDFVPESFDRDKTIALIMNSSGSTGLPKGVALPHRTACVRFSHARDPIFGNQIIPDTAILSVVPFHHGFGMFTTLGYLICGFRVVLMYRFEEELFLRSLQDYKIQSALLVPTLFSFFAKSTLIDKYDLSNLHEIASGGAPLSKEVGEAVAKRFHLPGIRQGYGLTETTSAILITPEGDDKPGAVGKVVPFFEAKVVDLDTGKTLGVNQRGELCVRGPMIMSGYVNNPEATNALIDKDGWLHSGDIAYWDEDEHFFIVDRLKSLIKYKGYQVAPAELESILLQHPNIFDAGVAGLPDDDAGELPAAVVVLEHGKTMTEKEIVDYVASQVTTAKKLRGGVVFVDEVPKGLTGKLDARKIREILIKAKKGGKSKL

## O=[N+]([O-])c1nn(-c2ccc3c(c2)OCCO3)[n+]([O-])c1Nc1ccc(Cl)cc1
[1]
  IC50: > 43.8 µM (not active)
[2]
  IC50: > 43.8 µM (not active)
[3]
  EC50: 0.131 µM (active)
[4]
  EC50: > 60 µM (not active)

## COc1ccccc1/C=C/C(=O)Nc1cccc(C(C)=O)c1
[5]
  EC50: > 50 µM (active)

## CCn1c(=O)cc(SCC(=O)N2CCCCC2)c2ccccc21
[6]
  EC50: > 79.4 µM (inactive)
[7]
  EC50: > 79.4 µM (not active)
[8]
  EC50: > 79.4 µM (not active)
[9]
  IC50: > 80 µM (inactive)

## COc1ccc(OC)c(S(=O)(=O)Nc2cccc3ccccc23)c1
[10]
  IC50: > 100 µM (not active)
[11]
  IC50: > 100 µM (inactive)

## Cc1ccccc1CSc1nc(O)c2c[nH]nc2n1
Aminopeptidase N
  IC50: 65.2 µM (active)

## O=C(O)COc1ccc(Br)cc1CP(=O)(c1ccccc1)c1ccccc1
Aminopeptidase N
  IC50: 49.3 µM (active)

## Cc1ccc(N=C(S)NCc2ccc(Cl)cc2)c(C)c1
[1]
  IC50: > 43.8 µM (not active)
[2]
  IC50: 17.1 µM (not active)

## O=C(CSc1nnc(NC(=O)c2ccccc2C(=O)O)s1)Nc1ccccc1Cl
[12]
  IC50: 14 µM (active)
[13]
  IC50: 9.42 µM (active)

## c1cc(Cn2ccnc2)ccn1
[10]
  IC50: > 100 µM (not active)
[11]
  IC50: > 100 µM (inactive)

## CC1=CC(C)(C)Nc2ccc(OC(=O)C(Cc3ccccc3)N3C(=O)c4ccccc4C3=O)cc21 (centres undefined)
[14]
  CC50: > 50 µM (active)
[15]
  EC50: > 260 µM (inactive)
[9]
  IC50: > 80 µM (inactive)

## CC1=NC(=O)C(N=Nc2cccc(C(=O)O)c2)N1c1ccccc1 (centres undefined)
[16]
  EC50: 0.67 µM (active)
HT-1080
  EC50: > 50 µM (not active)
[12]
  IC50: 4.74 µM (active)
[13]
  IC50: 6.48 µM (active)
[17]
  AC50: 8.62 µM (active)

## O=C(N/N=C/c1cc(Cl)ccc1O)c1ccncc1
Aminopeptidase N
  IC50: 22.3 µM (active)
Cells [18]
  EC50: 18.1 µM (active)
Cells [19]
  EC50: > 350 µM (not active)
Nonstructural protein 1
  IC50: 5.05 µM (active)
[17]
  AC50: 8.98 µM (active)

## Cc1[nH]c2ccccc2c1/C=N/Nc1nc(Nc2ccccc2)nc(N2CCOCC2)n1
[14]
  CC50: 22.6 µM (active)
[20]
  CC50: 24.1 µM (active)
[21]
  IC50: 0.482 µM (active)
[9]
  IC50: 66.7 µM (inactive)
Vero
  CC50: 3.33 µM (active)

## COc1ccc(OC)c(S(=O)(=O)Nc2ccc3ncccc3c2)c1
[10]
  IC50: > 100 µM (not active)
[11]
  IC50: > 100 µM (inactive)
